ChEMBL document CHEMBL4609973, “Hepatitis C - New drugs and treatment prospects” (Eur J Med Chem, 2019)

Columns and labels:
[1] = Half life in human; type: ADME
[2] = Oral bioavailability in human; type: ADME, organism-based; details: in vivo
[3] = Drug excretion in human feces assessed as daclatasvir level; type: ADME, tissue-based; details: faeces, read-out: Drug excretion
[4] = Absolute bioavailability in human; type: ADME, organism-based; details: in vivo
[5] = Drug excretion in human feces assessed as dasabuvir level; type: ADME, tissue-based; details: faeces, read-out: Drug excretion
[6] = Drug excretion in human feces assessed as ombitasvir level; type: ADME, tissue-based; details: faeces, read-out: Drug excretion
[7] = Oral bioavailability in human under fed condition; type: ADME, organism-based; details: in vivo
[8] = Half life in HIV infected human; type: ADME

SMILES | half-life [1] | further results
C[C@@]1(F)[C@H](O)[C@@H](CO)O[C@H]1n1ccc(=O)[nH]c1=O | 27 h | –
COC(=O)N[C@H](C(=O)N1CCC[C@H]1c1nc(-c2ccc(-c3ccc(-c4c[nH]c([C@@H]5CCCN5C(=O)[C@@H](NC(=O)OC)C(C)C)n4)cc3)cc2)c[nH]1)C(C)C [DACLATASVIR] | 12 to 15 h | bioavailability [2]: 67%; dose excreted [3]: 53%
COc1c(-c2ccc3cc(NS(C)(=O)=O)ccc3c2)cc(-n2ccc(=O)[nH]c2=O)cc1C(C)(C)C [DASABUVIR] | 5.5 to 6 h | bioavailability [4]: 70%; dose excreted [5]: 26.2%
COC(=O)N[C@H](C(=O)N1CCC[C@H]1c1nc(-c2ccc3c(c2)O[C@@H](c2ccccc2)n2c-3cc3cc(-c4c[nH]c([C@@H]5CCCN5C(=O)[C@@H](NC(=O)OC)C(C)C)n4)ccc32)c[nH]1)C(C)C [ELBASVIR] | 24 h | –
CC(C)(C)[C@@H]1NC(=O)O[C@@H]2CCC[C@H]2OC/C=C/C(F)(F)c2nc3ccccc3nc2O[C@@H]2C[C@@H](C(=O)N[C@]3(C(=O)NS(=O)(=O)C4(C)CC4)C[C@H]3C(F)F)N(C2)C1=O [GLECAPREVIR] | 6 h | –
C=C[C@@H]1C[C@]1(NC(=O)[C@@H]1C[C@@H]2CN1C(=O)[C@H](C(C)(C)C)NC(=O)O[C@@H]1C[C@H]1CCCCCc1nc3ccc(OC)cc3nc1O2)C(=O)NS(=O)(=O)C1CC1 [GRAZOPREVIR ANHYDROUS] | 31 h | –
COC(=O)N[C@H](C(=O)N1CC2(CC2)C[C@H]1c1ncc(-c2ccc3c(c2)C(F)(F)c2cc(-c4ccc5nc([C@@H]6[C@H]7CC[C@H](C7)N6C(=O)[C@@H](NC(=O)OC)C(C)C)[nH]c5c4)ccc2-3)[nH]1)C(C)C [LEDIPASVIR] | 47 h | bioavailability [2]: 76%
COC(=O)N[C@H](C(=O)N1CCC[C@H]1C(=O)Nc1ccc([C@@H]2CC[C@@H](c3ccc(NC(=O)[C@@H]4CCCN4C(=O)[C@@H](NC(=O)OC)C(C)C)cc3)N2c2ccc(C(C)(C)C)cc2)cc1)C(C)C [OMBITASVIR] | 21 to 25 h | bioavailability [4]: 48%; dose excreted [6]: 90.2%
Cc1cnc(C(=O)N[C@H]2CCCCC/C=C\[C@@H]3C[C@@]3(C(=O)NS(=O)(=O)C3CC3)NC(=O)[C@@H]3C[C@@H](Oc4nc5ccccc5c5ccccc45)CN3C2=O)cn1 [PARITAPREVIR] | 5.5 h | bioavailability [4]: 53%
COC(=O)N[C@H](C(=O)N1CCC[C@H]1c1nc2cc([C@H]3CC[C@H](c4cc5nc([C@@H]6CCCN6C(=O)[C@@H](NC(=O)OC)[C@@H](C)OC)[nH]c5cc4F)N3c3cc(F)c(N4CCC(c5ccc(F)cc5)CC4)c(F)c3)c(F)cc2[nH]1)[C@@H](C)OC [PIBRENTASVIR] | 23 to 29 h | –
COc1ccc2c(O[C@@H]3C[C@H]4C(=O)N[C@]5(C(=O)NS(=O)(=O)C6CC6)C[C@H]5/C=C\CCCCN(C)C(=O)[C@@H]4C3)cc(-c3nc(C(C)C)cs3)nc2c1C [SIMEPREVIR] | 10 to 13 h | bioavailability [7]: 62%; half-life [8]: 41 h
CC(C)OC(=O)[C@H](C)N[P@](=O)(OC[C@H]1O[C@@H](n2ccc(=O)[nH]c2=O)[C@](C)(F)[C@@H]1O)Oc1ccccc1 [SOFOSBUVIR] | 0.4 h | bioavailability [2]: 92%
COC[C@H]1C[C@@H](c2ncc(-c3ccc4c(c3)COc3cc5c(ccc6nc([C@@H]7CC[C@H](C)N7C(=O)[C@@H](NC(=O)OC)C(C)C)[nH]c65)cc3-4)[nH]2)N(C(=O)[C@H](NC(=O)OC)c2ccccc2)C1 [VELPATASVIR] | 15 h | –
